Counter-ions that a name gives are not always drawn. Like-named read-outs stand apart in the source and are kept apart here.
Test system: BALB/3T3 clone A31 cells
Experiment: cells
Format: cell-based
Conditions: for IC50: Mus musculus, light or radiation study, BALB/3T3 clone A31 cells, neutral red
Experimental: To evaluate the phototoxicity of (PEG)-BHD1028, the potential phototoxicity of (PEG)-BHD1028 was measured in the BALB/3T3 clone A31 cells after UV exposure. The test substance and the positive control group (chlorpromazine hydrochloride; CPZ) were dissolved in a Hank's Balanced Salt Solution (HBSS) and then diluted with a Hank's Balanced Salt Solution (HBSS). The cells were trypsinized and counted. Thereafter, 1×10^4 cells per well were seeded in a 96-well plate and cultured for approximately 24 hours before treating the test samples. One hour after the sample treatment, the plate was irradiated with a UV irradiation system (UVA, 365 nm). After UV irradiation, the plate was incubated for 24 hours. The cell viability of the cultured cells was confirmed by measuring the absorbance at 540 nm using the neutral red staining method.

SMILES: CN(C)CCCN1c2ccccc2Sc2ccc(Cl)cc21 [CPZ, chlorpromazine hydrochloride, reference compound]
- phototoxicity classification by PIF and MPE: positive results
- IC50 (UVA 365 nm irradiation, read-out: IC50 UV (+Irr)): 1.26 µg/mL
- IC50 (without UV irradiation, read-out: IC50 UV (−Irr)): 37.5 µg/mL
- MPE (mean photo effect) (mouse, 24 h): 0.489
- PIF (photo irradiation factor) (mouse, 24 h): 29.668
